Results from PubChem BioAssay AID1845210 (Molecular Pharmacology Branch, DTP, NCI, 2023).

Test system: NCI-H226 complex tumor spheroids, viability
Experiment: Anticancer human tumor NCI-H226 cell line growth inhibition;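 further: spheroids exposed to compound for 7 days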;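 on viability, T/C: 100% = DMSO vehicle control viability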
Conditions: for IC50: curve of first compound; for viability, T/C: stronger effect = lower value
Method in brief: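 Single agents and combinations were tested on spheroids built from tumor cells plus HUVEC and hMSC, at half-log dilutions starting at or near clinical Cmax, else 10 microM; final DMSO 0.25% (v/v).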

[1] = second compound 30 pM, first compound 0.0316 µM
[2] = second compound 30 pM, first compound 0.1 µM
[3] = second compound 30 pM, first compound 0.316 µM
[4] = second compound 30 pM, first compound 1 µM
[5] = second compound 30 pM, first compound 3.16 µM
[6] = second compound 30 pM, first compound 10 µM
[7] = second compound 94.9 pM, first compound 0.0316 µM
[8] = second compound 94.9 pM, first compound 0.1 µM
[9] = second compound 94.9 pM, first compound 0.316 µM
[10] = second compound 94.9 pM, first compound 1 µM
[11] = second compound 94.9 pM, first compound 3.16 µM
[12] = second compound 94.9 pM, first compound 10 µM
[13] = second compound 0.0003 µM, first compound 0.0316 µM
[14] = second compound 0.0003 µM, first compound 0.1 µM
[15] = second compound 0.0003 µM, first compound 0.316 µM
[16] = second compound 0.0003 µM, first compound 1 µM
[17] = second compound 0.0003 µM, first compound 3.16 µM
[18] = second compound 0.0003 µM, first compound 10 µM
[19] = second compound 0.000949 µM, first compound 0.0316 µM
[20] = second compound 0.000949 µM, first compound 0.1 µM
[21] = second compound 0.000949 µM, first compound 0.316 µM
[22] = second compound 0.000949 µM, first compound 1 µM
[23] = second compound 0.000949 µM, first compound 3.16 µM
[24] = second compound 0.000949 µM, first compound 10 µM
[25] = second compound 0.003 µM, first compound 0.0316 µM
[26] = second compound 0.003 µM, first compound 0.1 µM
[27] = second compound 0.003 µM, first compound 0.316 µM
[28] = second compound 0.003 µM, first compound 1 µM
[29] = second compound 0.003 µM, first compound 3.16 µM
[30] = second compound 0.003 µM, first compound 10 µM

SMILES: CC1COCCN1c1cc(-c2ccnn2C)c2ccnc(-c3ccn[nH]3)c2n1 (stereo not given) + COc1cc2c(cc1O)CCNC21CSC2c3c(OC(C)=O)c(C)c4c(c3C(COC1=O)N1C(O)C3Cc5cc(C)c(OC)c(O)c5C(C21)N3C)OCO4
- IC50 (second compound 30 pM): 3.12 µM
- IC50 (second compound 94.9 pM): > 10 µM
- IC50 (second compound 0.0003 µM): > 10 µM
- IC50 (second compound 0.000949 µM): 3.65 µM
- IC50 (second compound 0.003 µM): < 0.0316 µM
- viability, T/C [1]: 120%
- viability, T/C [2]: 108%
- viability, T/C [3]: 89.1%
- viability, T/C [4]: 61.3%
- viability, T/C [5]: 50.9%
- viability, T/C [6]: 45.2%
- viability, T/C [7]: 106%
- viability, T/C [8]: 112%
- viability, T/C [9]: 80%
- viability, T/C [10]: 62.1%
- viability, T/C [11]: 53.5%
- viability, T/C [12]: 50.4%
- viability, T/C [13]: 109%
- viability, T/C [14]: 108%
- viability, T/C [15]: 98.9%
- viability, T/C [16]: 71.3%
- viability, T/C [17]: 57.8%
- viability, T/C [18]: 56.7%
- viability, T/C [19]: 126%
- viability, T/C [20]: 102%
- viability, T/C [21]: 90.6%
- viability, T/C [22]: 58.8%
- viability, T/C [23]: 53%
- viability, T/C [24]: 43.5%
- viability, T/C [25]: 1.51%
- viability, T/C [26]: 1.41%
- viability, T/C [27]: 1.32%
- viability, T/C [28]: 0.82%
- viability, T/C [29]: 0.74%
- viability, T/C [30]: 0.49%

SMILES: COc1cc(C)[nH]c(=O)c1CN1CCc2c(Cl)cc(C(OC)C3COC3)c(Cl)c2C1=O (stereo not given) + COc1cc2c(cc1O)CCNC21CSC2c3c(OC(C)=O)c(C)c4c(c3C(COC1=O)N1C(O)C3Cc5cc(C)c(OC)c(O)c5C(C21)N3C)OCO4
- IC50 (second compound 30 pM): > 10 µM
- IC50 (second compound 94.9 pM): > 10 µM
- IC50 (second compound 0.0003 µM): > 10 µM
- IC50 (second compound 0.000949 µM): > 10 µM
- IC50 (second compound 0.003 µM): < 0.0316 µM
- viability, T/C [1]: 115%
- viability, T/C [2]: 131%
- viability, T/C [3]: 128%
- viability, T/C [4]: 115%
- viability, T/C [5]: 126%
- viability, T/C [6]: 129%
- viability, T/C [7]: 103%
- viability, T/C [8]: 113%
- viability, T/C [9]: 125%
- viability, T/C [10]: 119%
- viability, T/C [11]: 127%
- viability, T/C [12]: 114%
- viability, T/C [13]: 133%
- viability, T/C [14]: 133%
- viability, T/C [15]: 130%
- viability, T/C [16]: 148%
- viability, T/C [17]: 140%
- viability, T/C [18]: 136%
- viability, T/C [19]: 103%
- viability, T/C [20]: 119%
- viability, T/C [21]: 111%
- viability, T/C [22]: 115%
- viability, T/C [23]: 114%
- viability, T/C [24]: 109%
- viability, T/C [25]: 3.38%
- viability, T/C [26]: 1.73%
- viability, T/C [27]: 1.1%
- viability, T/C [28]: 1.4%
- viability, T/C [29]: 1.04%
- viability, T/C [30]: 0.69%

SMILES: Cc1cc(C)c(CNC(=O)c2cc(-c3ccc(CN4CCOCC4)cc3)cc3c2cnn3C2CCCC2)c(=O)[nH]1 + COc1cc2c(cc1O)CCNC21CSC2c3c(OC(C)=O)c(C)c4c(c3C(COC1=O)N1C(O)C3Cc5cc(C)c(OC)c(O)c5C(C21)N3C)OCO4
- IC50 (second compound 30 pM): > 10 µM
- IC50 (second compound 94.9 pM): > 10 µM
- IC50 (second compound 0.0003 µM): > 10 µM
- IC50 (second compound 0.000949 µM): > 10 µM
- IC50 (second compound 0.003 µM): < 0.0316 µM
- viability, T/C [1]: 87.5%
- viability, T/C [2]: 106%
- viability, T/C [3]: 96.8%
- viability, T/C [4]: 93.8%
- viability, T/C [5]: 86.7%
- viability, T/C [6]: 95.8%
- viability, T/C [7]: 98.3%
- viability, T/C [8]: 100%
- viability, T/C [9]: 101%
- viability, T/C [10]: 96.6%
- viability, T/C [11]: 83.1%
- viability, T/C [12]: 91.8%
- viability, T/C [13]: 105%
- viability, T/C [14]: 115%
- viability, T/C [15]: 109%
- viability, T/C [16]: 110%
- viability, T/C [17]: 110%
- viability, T/C [18]: 93.3%
- viability, T/C [19]: 108%
- viability, T/C [20]: 104%
- viability, T/C [21]: 113%
- viability, T/C [22]: 103%
- viability, T/C [23]: 92.3%
- viability, T/C [24]: 97.8%
- viability, T/C [25]: 3.24%
- viability, T/C [26]: 1.05%
- viability, T/C [27]: 2.46%
- viability, T/C [28]: 0.49%
- viability, T/C [29]: 0.37%
- viability, T/C [30]: 0.44%

SMILES: [2H]c1nc(C)nc([2H])c1-c1cc(NC[C@@H](C)c2cccc3c(C(=O)NC)ccnc23)ncn1 + COc1cc2c(cc1O)CCNC21CSC2c3c(OC(C)=O)c(C)c4c(c3C(COC1=O)N1C(O)C3Cc5cc(C)c(OC)c(O)c5C(C21)N3C)OCO4
- IC50 (second compound 30 pM): > 10 µM
- IC50 (second compound 94.9 pM): > 10 µM
- IC50 (second compound 0.0003 µM): > 10 µM
- IC50 (second compound 0.000949 µM): > 10 µM
- IC50 (second compound 0.003 µM): < 0.0316 µM
- viability, T/C [1]: 99.6%
- viability, T/C [2]: 101%
- viability, T/C [3]: 93%
- viability, T/C [4]: 106%
- viability, T/C [5]: 111%
- viability, T/C [6]: 101%
- viability, T/C [7]: 99.1%
- viability, T/C [8]: 101%
- viability, T/C [9]: 100%
- viability, T/C [10]: 101%
- viability, T/C [11]: 103%
- viability, T/C [12]: 103%
- viability, T/C [13]: 105%
- viability, T/C [14]: 110%
- viability, T/C [15]: 115%
- viability, T/C [16]: 118%
- viability, T/C [17]: 98.7%
- viability, T/C [18]: 118%
- viability, T/C [19]: 105%
- viability, T/C [20]: 114%
- viability, T/C [21]: 102%
- viability, T/C [22]: 112%
- viability, T/C [23]: 101%
- viability, T/C [24]: 105%
- viability, T/C [25]: 3.26%
- viability, T/C [26]: 3.28%
- viability, T/C [27]: 1.57%
- viability, T/C [28]: 2.56%
- viability, T/C [29]: 1.3%
- viability, T/C [30]: 0.8%
